The source of these data is patent US5972898A, “3',3-N-bis-substituted macrolide LHRH antagonists” (Abbott Laboratories, priority 1998, dated 1999).

For one experiment, the target named is T1, LHRH rat pituitary receptor (Rattus norvegicus, UniProt P30969).
T1 construct: from tissue; host or cells: rat pituitary
T1 sequence (P30969 1-327): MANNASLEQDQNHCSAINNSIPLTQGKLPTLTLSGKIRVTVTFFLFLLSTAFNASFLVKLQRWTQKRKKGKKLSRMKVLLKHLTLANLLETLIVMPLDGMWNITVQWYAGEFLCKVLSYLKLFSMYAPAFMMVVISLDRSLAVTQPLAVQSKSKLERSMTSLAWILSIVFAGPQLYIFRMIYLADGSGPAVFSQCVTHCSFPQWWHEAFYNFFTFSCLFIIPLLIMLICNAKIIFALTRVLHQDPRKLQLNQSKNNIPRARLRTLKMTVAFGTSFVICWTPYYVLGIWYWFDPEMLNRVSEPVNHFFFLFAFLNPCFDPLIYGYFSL
Put plainly: LHRH rat pituitary receptor binding (pKI). The note with it: in vitro. On the procedure:
Representative compounds of the present invention were evaluated in in vitro tests for LHRH rat pituitary receptor binding (pKI) and for LH inhibition from rat pituitary cells for antagonist potency (pA2). […] The receptor binding affinity (pKI) is the negative equilibrium dissociation constants.
Turning to “3',3'-N-Bisdesmethyl-3'-N-cyclopropylmethyl-3'-N-(4hydroxymethyl-2-furyl)methyl-11-deoxy-11-[carboxy-(3-chloro-4-fluorophenethylamino)]-6-O-methyl-erythromycin A 11,12-(cyclic carbamate) [Example 23]”, the “pKI (receptor binding affinity)” value is 8.98. Consider “3',3'-N-Bisdesmethyl-3'-N-cyclopropylmethyl-3'-N-(6-methyl-2-pyridyl)methyl-11-deoxy-11-[carboxy-(3-chloro-4-fluorophenethylamino)]-6-O-methyl-erythromycin A 11,12-(cyclic carbamate) [Example 25]”, for which the “pKI (receptor binding affinity)” value is 8.58. As for “3',3'-N-Bisdesmethyl-3'-N-cyclopropylmethyl-3'-N-(2-furyl)methyl-11-deoxy-11-[carboxy-(3-chloro-4-fluorophenethylamino)]-6-O-methyl-erythromycin A 11,12-(cyclic carbamate) [Example 24]”, the “pKI (receptor binding affinity)” value is given as 8.00. The same measure, in the same setting: under `CC[C@H]1OC(=O)[C@H](C)[C@@H](O[C@H]2C[C@@](C)(OC)[C@@H](O)[C@H](C)O2)[C@H](C)[C@@H](O[C@@H]2O[C@H](C)C[C@H](N(CC3CC3)C(C)C)[C@H]2O)[C@](C)(OC)C[C@@H](C)C(=O)[C@H](C)[C@H]2N(CCc3ccc(Cl)cc3)C(=O)O[C@]12C` [Example 7, 3',3'-N-Bisdesmethyl-3'-N-cyclopropylmethyl-3'-N-isopropyl-11-deoxy-11-carboxy-(4-chlorophenethylamino)]-6-O-methyl-erythromycin A 11,12-(cyclic carbamate)] stands 8.56; under `CC[C@H]1OC(=O)[C@H](C)[C@@H](O[C@H]2C[C@@](C)(OC)[C@@H](O)[C@H](C)O2)[C@H](C)[C@@H](O[C@@H]2O[C@H](C)C[C@H](N(CC3CC3)C3CCC3)[C@H]2O)[C@](C)(OC)C[C@@H](C)C(=O)[C@H](C)[C@H]2N(CCc3ccc(F)c(Cl)c3)C(=O)O[C@]12C` [Example 19, 3',3'-N-Bisdesmethyl-3'-N-cyclobutyl-3'-N-cyclopropylmethyl-11-deoxy-11-[carboxy-(3-chloro-4-fluorophenethylamino)]-6-O-methyl-erythromycin A 11,12-(cyclic carbamate)], 9.08.

Turning to “3',3 -N-Bisdesmethyl-3'-N-cyclopropylmethyl-3'-N-4-hydroxymethyl-(2-furylmethyl-11-Deoxy-11-[carboxy-(3,4-dichlorophenethylamino)]-6-O-methyl-erythromycinA 11,12-(cyclic carbamate) [Example 21]”, the “pKI (receptor binding affinity)” value is listed as 8.34. On the same count and under the same terms, under “3',3'-N-Bisdesmethyl-3'-N-cyclopentyl-3'-N-cyclopropylmethyl-11-deoxy-11-[carboxy-(3-chloro-4-fluorophenethylamino)]-6-O-methyl-erythromycin A 11,12-(cyclic carbamate) [Example 16]” stands 8.87.

The experiment is the same for the next values; noted with them: in vitro, read-out: pKI (receptor binding affinity) (converted).
As for `CC[C@H]1OC(=O)[C@H](C)[C@@H](O[C@H]2C[C@@](C)(OC)[C@@H](O)[C@H](C)O2)[C@H](C)[C@@H](O[C@@H]2O[C@H](C)C[C@H](N(CC3CC3)CC3CC3)[C@H]2O)[C@](C)(OC)C[C@@H](C)C(=O)[C@H](C)[C@H]2N(CCc3ccc(Cl)cc3)C(=O)O[C@]12C` [Example 3, 3',3'-N-Bisdesmethyl-3',3'-N-biscyclolpropylmethyl-11-deoxy-11-[carboxy-(4-chlorophenetlylamino)]-6-methyl-eryromycin A 11,12-(cyclic carbamate)], the Ki is 4.17 nM.

Consider `CC[C@H]1OC(=O)[C@H](C)[C@@H](O[C@H]2C[C@@](C)(OC)[C@@H](O)[C@H](C)O2)[C@H](C)[C@@H](O[C@@H]2O[C@H](C)C[C@H](N(CC3CC3)CC3CC3)[C@H]2O)[C@](C)(OC)C[C@@H](C)C(=O)[C@H](C)[C@H]2N(CCc3ccc(OC)cc3)C(=O)O[C@]12C` [Example 10, 3',3'-N-Bisdesmethyl-3',3'-N-biscyclopropylmethyl-11-deoxy-11-[carboxy-(4-methoxyphenethylamino)]-6-O-methyl-erythromycin A 11,12-(cyclic carbamate)], for which the Ki was 1.41 nM. The same measure, in the same setting: to `CC[C@H]1OC(=O)[C@H](C)[C@@H](O[C@H]2C[C@@](C)(OC)[C@@H](O)[C@H](C)O2)[C@H](C)[C@@H](O[C@@H]2O[C@H](C)C[C@H](N(CC3CC3)CC3CC3)[C@H]2O)[C@](C)(OC)C[C@@H](C)C(=O)[C@H](C)[C@H]2N(CCc3ccc(F)c(Cl)c3)C(=O)O[C@]12C` [Example 15, 3',3'-N-Bisdesmethyl-3',3'-N-biscyclopropylmethyl-11-deoxy-11-[carboxy-(3-chloro-4-fluorophenetlamino)]-6-O-methyl-erythromycin A 11,12-(cyclic carbamate)] belongs 1.26 nM; to `CC[C@H]1OC(=O)[C@H](C)[C@@H](O[C@H]2C[C@@](C)(OC)[C@@H](O)[C@H](C)O2)[C@H](C)[C@@H](O[C@@H]2O[C@H](C)C[C@H](N(CC)C(C)C)[C@H]2O)[C@](C)(OC)C[C@@H](C)C(=O)[C@H](C)[C@H]2N(CCc3ccc(Cl)cc3)C(=O)O[C@]12C` [Example 8, 3',3'-N-Bisdesmethyl-3'-N-ethyl-3'-N-isopropyl-11-deoxy-11-[carboxy-(4-chlorophenethylamino)]-6-O-methyl-erythromycin A 11,12-(cyclic carbamate)], 2.51 nM; to `CC[C@H]1OC(=O)[C@H](C)[C@@H](O[C@H]2C[C@@](C)(OC)[C@@H](O)[C@H](C)O2)[C@H](C)[C@@H](O[C@@H]2O[C@H](C)C[C@H](N(CC3CC3)CC3CC3)[C@H]2O)[C@](C)(OC)C[C@@H](C)C(=O)[C@H](C)[C@H]2N(CCc3ccc(Cl)c(Cl)c3)C(=O)O[C@]12C` [Example 1], 18.6 nM. Still for that read-out and setting: to `CC[C@H]1OC(=O)[C@H](C)[C@@H](O[C@H]2C[C@@](C)(OC)[C@@H](O)[C@H](C)O2)[C@H](C)[C@@H](O[C@@H]2O[C@H](C)C[C@H](N(CCCc3ccccn3)CCCc3ccccn3)[C@H]2O)[C@](C)(OC)C[C@@H](C)C(=O)[C@H](C)[C@H]2N(CCc3ccc(Cl)c(Cl)c3)C(=O)O[C@]12C` [Example 20, 3',3'-N-Bisdesmethyl-3',3'-N-bis-[3-(2-pyridyl)-propyl]-11-deoxy-11-[carboxy-(3,4-dichlorophenethylamino)]-6-O-methyl-erythromycin A 11,12-(cyclic carbamate)] belongs 3.98 nM; to `CC[C@H]1OC(=O)[C@H](C)[C@@H](O[C@H]2C[C@@](C)(OC)[C@@H](O)[C@H](C)O2)[C@H](C)[C@@H](O[C@@H]2O[C@H](C)C[C@H](N(CC3CC3)CC3CC3)[C@H]2O)[C@](C)(OC)C[C@@H](C)C(=O)[C@H](C)[C@H]2N(CCc3ccc(F)cc3)C(=O)O[C@]12C` [Example 11, 3',3'-N-Bisdesmethyl-3',3'-N-biscyclopropylmethyl-11-deoxy-11-[carboxy-(4-fluorophenethylamino)]-6-O-methyl-erthromycin A 11,12-(cyclic carbamate)], 2.19 nM. In the case of `CC[C@H]1OC(=O)[C@H](C)[C@@H](O[C@H]2C[C@@](C)(OC)[C@@H](O)[C@H](C)O2)[C@H](C)[C@@H](O[C@@H]2O[C@H](C)C[C@H](N(CC3CCC3)CC3CC3)[C@H]2O)[C@](C)(OC)C[C@@H](C)C(=O)[C@H](C)[C@H]2N(CCc3ccc(Cl)cc3)C(=O)O[C@]12C` [Example 9, 3',3'-N-Bisdesmethyl-3'-N-cyclobutylmethyl-3'-N-cyclopropylmethyl-11-deoxy-11-[carboxy-(4-chlorophenethylamino)]-6-methyl-erythromycin A 11,12-(cycliccarbamate)], the Ki was 6.31 nM. Still for that read-out and setting: under `CC[C@H]1OC(=O)[C@H](C)[C@@H](O[C@H]2C[C@@](C)(OC)[C@@H](O)[C@H](C)O2)[C@H](C)[C@@H](O[C@@H]2O[C@H](C)C[C@H](N(C3CCC3)C3CCC3)[C@H]2O)[C@](C)(OC)C[C@@H](C)C(=O)[C@H](C)[C@H]2N(CCc3ccc(Cl)c(F)c3)C(=O)O[C@]12C` [Example 12, 3',3'-N-Bisdesmethyl-3',3'-N-biscyclobutyl-11-deoxy-11-[carboxy-(4-chloro-3-fluorophenethylamino)]-O-methl-erythromycin A 11,12-(cyclic carbamate)] stands 1 nM. On the same count and under the same terms, to `CCCN(C(C)C)[C@H]1C[C@@H](C)O[C@@H](O[C@@H]2[C@@H](C)[C@H](O[C@H]3C[C@@](C)(OC)[C@@H](O)[C@H](C)O3)[C@@H](C)C(=O)O[C@H](CC)[C@@]3(C)OC(=O)N(CCc4ccc(Cl)cc4)[C@@H]3[C@@H](C)C(=O)[C@H](C)C[C@@]2(C)OC)[C@@H]1O` [Example 6, 3',3'-N-Bisdesmethyl-3'-N-isopropyl-3'-N-propyl-11-deoxy-11-[carboxy-(4-chlorophenethylamino)]-6-O-methyl-erythromycin A 11,12-(cyclic carbamate)] belongs 8.32 nM; to `CC[C@H]1OC(=O)[C@H](C)[C@@H](O[C@H]2C[C@@](C)(OC)[C@@H](O)[C@H](C)O2)[C@H](C)[C@@H](O[C@@H]2O[C@H](C)C[C@H](N(CCCc3ccncc3)CC3CC3)[C@H]2O)[C@](C)(OC)C[C@@H](C)C(=O)[C@H](C)[C@H]2N(CCc3ccc(Cl)c(Cl)c3)C(=O)O[C@]12C` [Example 22, 3',3'-N-Bisdesmethyl-3'-N-cyclopropylmethyl-3'-N-[3-(4-pyridyl)propyl]-11-deoxy-11-[carboxy-(3,4-dichlorophenethylamino)]-6-O-methyl-erythromycin A 11,12-(cyclic carbamate)], 1.91 nM.
